Counter-ions that a name gives are not always drawn.
Key:
[1] = tested on: HIV-1 infected adult subjects; assay: Study 202 biomarkers of inflammation; format: in vivo, human; conditions: EFV 600 mg
Protocol: As an exploratory analysis, levels of inflammation biomarkers MCP-1, sCD14, high sensitivity C-reactive protein [hs-CRP], interleukin-6 [IL-6], D-dimer, and fibrinogen) were measured. Baseline values and changes from baseline at Week 24 and Week 48 of MCP-1, sCD14, hs-CRP, IL-6, D-dimer, and fibrinogen are summarized in Table 22.
The sCD14 samples were originally analyzed in 2 separate batches: Batch 1 included samples leading up to the Week 24 primary analysis and Batch 2 included Week 32 and Week 48 (end of study) samples. A repeat analysis of archived samples all analyzed in one batch was conducted for consistency in analysis across time points. To control for the effects of covariates, a linear mixed-model repeated-measures analysis was conducted on the changes from baseline in sCD14 (analysis dated September 2013).

[2] = tested on: adults with CCR5 tropic HIV-1; assay: Study 202 post-hoc APRI and FIB-4 fibrosis index scores; format: in vivo, human
Protocol: APRI and FIB-4 scores were calculated. Change in score category from baseline (BL) to Weeks 24 and 48 was assessed in patients with non-missing data. Correlations between changes from BL in APRI and FIB-4 scores, and MCP-1 (CCR2 ligand) and sCD14 (inflammatory biomarker) levels were evaluated.

[3] = Solubility of cenicriviroc mesylate; format: physicochemical
[4] = Week 24, CVC pooled 100 and 200 mg, or EFV
[5] = Week 48, CVC pooled 100 and 200 mg, or EFV

## O=C1Nc2ccc(Cl)cc2[C@@](C#CC2CC2)(C(F)(F)F)O1 [EFV, efavirenz, reference compound]
[1]; Week 12
  sCD14 (original values) change from baseline, mean: 90000 pg/mL
  sCD14 (original values) change from baseline, median: 180000 pg/mL
[1]; Week 24
  D-dimer change from baseline, mean: -53 ng/mL
  D-dimer change from baseline, median: -26 ng/mL
  Fibrinogen change from baseline, mean: -28 mg/dL
  Fibrinogen change from baseline, median: -31 mg/dL
  IL-6 change from baseline, mean: -8.72 pg/mL
  IL-6 change from baseline, median: 0.00 pg/mL
  MCP-1 change from baseline, mean: -44 pg/mL
  MCP-1 change from baseline, median: -17 pg/mL
  hs-CRP change from baseline, mean: -0.46 mg/dL
  hs-CRP change from baseline, median: -0.01 mg/dL
  sCD14 (original values) change from baseline, mean: 230000 pg/mL
  sCD14 (original values) change from baseline, median: 130000 pg/mL
[1]; Week 32
  sCD14 (original values) change from baseline, mean: 480000 pg/mL
  sCD14 (original values) change from baseline, median: 170000 pg/mL
[1]; Week 48
  D-dimer change from baseline, mean: -34 ng/mL
  D-dimer change from baseline, median: 0.0 ng/mL
  Fibrinogen change from baseline, mean: -30 mg/dL
  Fibrinogen change from baseline, median: -22 mg/dL
  IL-6 change from baseline, mean: -13.11 pg/mL
  IL-6 change from baseline, median: 0.00 pg/mL
  MCP-1 change from baseline, mean: 4.2 pg/mL
  MCP-1 change from baseline, median: 33.6 pg/mL
  hs-CRP change from baseline, mean: -0.71 mg/dL
  hs-CRP change from baseline, median: -0.03 mg/dL
  sCD14 (original values) change from baseline, median: 460000 pg/mL
[2]; EFV arm, all subjects <1.45 at baseline
  Subjects with decrease in FIB-4 score by one category: no subject treated with EFV decreased in FIB-4 score by one category
[2]; [4]
  Subjects in APRI category <0.5: 100%
  Subjects in FIB-4 category <1.45: 100%
  Subjects with APRI decreased 1 category from baseline: 5%
[2]; [5]
  Subjects in APRI category <0.5: 100%
  Subjects in FIB-4 category 1.45-3.25: 6%
  Subjects in FIB-4 category <1.45: 94%
  Subjects with APRI decreased 1 category from baseline: 6%

## CCCCOCCOc1ccc(-c2ccc3c(c2)C=C(C(=O)Nc2ccc([S@@+]([O-])Cc4cncn4CCC)cc2)CCCN3CC(C)C)cc1 [cenicriviroc mesylate, (S)-8-[4-(2-Butoxyethoxy)phenyl]-1-isobutyl-N-(4-{[(1-propyl-1H-imidazol-5-yl)methyl]sulfinyl}phenyl)-1,2,3,4-tetrahydro-1-benzazocine-5-carboxamide monomethanesulfonoate]
[3]; aqueous solution at pH 3
  Solubility: sparingly soluble
[3]; aqueous solution from pH 1 to 2
  Solubility: freely soluble
[3]; aqueous solution from pH 4 to 13 and in water
  Solubility: practically insoluble
[3]; in 99.5% ethanol
  Solubility: sparingly soluble
[3]; in acetonitrile, 1-octanol, tetrahydrofuran
  Solubility: slightly soluble
[3]; in ethyl acetate and diethylether
  Solubility: practically insoluble
[3]; in glacial acetic acid, methanol, benzyl alcohol, dimethylsulfoxide, N,N-dimethylformamide
  Solubility: freely soluble
[3]; in pyridine and acetic anhydride
  Solubility: soluble

— patent US20200268768A1, “CENICRIVIROC COMBINATION THERAPY FOR THE TREATMENT OF FIBROSIS” (Tobira Therapeutics, Inc., priority 2015, published 2020)
